# Reference: PubChem BioAssay AID256 (DTP/NCI, 2004)
# Values joined by “and” are separate entries in the source; they are usually repeats but may differ in a detail not shown here. Equal entries are not always repeated. Toxic doses and inconclusive results are not listed.
# Tested on: CD2F1 mice, L1210 leukemia ip, survival T/C
# Assay: NCI In Vivo Anticancer Drug Screen. Data for tumor model L1210 Leukemia (intraperitoneal) in CD2F1 (CDF1) mice
# Details: higher = longer survival
# In short: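 Read-out first: treated-group measurement over vehicle-control measurement, expressed as a ratio. Animals bore a transplanted tumor line and were dosed with compound or vehicle.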
# [1] = endpoint: mean survival time, dose: 100.0 mg/kg/injection, schedule: Q04DX003 (ip), vehicle: saline
# [2] = endpoint: mean survival time, dose: 200.0 mg/kg/injection, schedule: Q04DX003 (ip), vehicle: saline
# [3] = endpoint: mean survival time, dose: 400.0 mg/kg/injection, schedule: Q04DX003 (ip), vehicle: saline
structure (smiles),measurement,setting,value
NCCCN=c1ccc2c3c1c(O)c1c(O)ccc(=O)c1c3[nH]n2CCNCCO,T/C,"endpoint: median survival time, dose: 0.28 mg/kg/injection, schedule: Q03HX008 (ip), vehicle: saline",162 % of control
same,T/C,"endpoint: median survival time, dose: 0.38 mg/kg/injection, schedule: Q03HX024 (ip), vehicle: saline",174 % of control
same,T/C,"endpoint: median survival time, dose: 0.45 mg/kg/injection, schedule: Q01DX005 (ip), vehicle: saline",174 % of control
same,T/C,"endpoint: median survival time, dose: 0.5 mg/kg/injection, schedule: Q01DX009 (ip), vehicle: saline",241 % of control
same,T/C,"endpoint: median survival time, dose: 0.56 mg/kg/injection, schedule: Q03HX008 (ip), vehicle: saline",174 % of control
same,T/C,"endpoint: median survival time, dose: 0.75 mg/kg/injection, schedule: Q03HX024 (ip), vehicle: saline",329 % of control
same,T/C,"endpoint: median survival time, dose: 0.75 mg/kg/injection, schedule: Q04DX003 (ip), vehicle: saline",231 % of control
same,T/C,"endpoint: median survival time, dose: 0.9 mg/kg/injection, schedule: Q01DX005 (ip), vehicle: saline",198 % of control
same,T/C,"endpoint: median survival time, dose: 0.9 mg/kg/injection, schedule: Q01DX005 (iv), vehicle: saline",114 % of control
same,T/C,"endpoint: median survival time, dose: 1.0 mg/kg/injection, schedule: Q01DX009 (ip), vehicle: saline",217 % of control
same,T/C,"endpoint: median survival time, dose: 1.13 mg/kg/injection, schedule: Q03HX008 (ip), vehicle: saline",731 % of control
same,T/C,"endpoint: median survival time, dose: 1.5 mg/kg/injection, schedule: Q03HX024 (ip), vehicle: saline",731 % of control
same,T/C,"endpoint: median survival time, dose: 1.5 mg/kg/injection, schedule: Q04DX003 (ip), vehicle: saline",186 % of control
same,T/C,"endpoint: median survival time, dose: 1.8 mg/kg/injection, schedule: Q01DX005 (ip), vehicle: saline",219 % of control
same,T/C,"endpoint: median survival time, dose: 2.0 mg/kg/injection, schedule: Q01DX009 (ip), vehicle: saline",186 % of control
same,T/C,"endpoint: median survival time, dose: 2.0 mg/kg/injection, schedule: Q01DX009 (ip), vehicle: water",170 % of control and 365 % of control
same,T/C,"endpoint: median survival time, dose: 2.2 mg/kg/injection, schedule: Q01DX001 (iv), vehicle: water",103 % of control and 111 % of control
same,T/C,"endpoint: median survival time, dose: 2.25 mg/kg/injection, schedule: Q01DX001 (iv), vehicle: saline",117 % of control
same,T/C,"endpoint: median survival time, dose: 2.25 mg/kg/injection, schedule: Q03HX008 (ip), vehicle: saline",280 % of control
same,T/C,"endpoint: median survival time, dose: 3.0 mg/kg/injection, schedule: Q03HX024 (ip), vehicle: saline",731 % of control
same,T/C,"endpoint: median survival time, dose: 3.0 mg/kg/injection, schedule: Q04DX003 (ip), vehicle: saline",207 % of control
same,T/C,"endpoint: median survival time, dose: 3.6 mg/kg/injection, schedule: Q01DX005 (ip), vehicle: saline",426 % of control
same,T/C,"endpoint: median survival time, dose: 3.6 mg/kg/injection, schedule: Q01DX005 (iv), vehicle: saline",158 % of control
same,T/C,"endpoint: median survival time, dose: 4.0 mg/kg/injection, schedule: Q01DX009 (ip), vehicle: saline",219 % of control
same,T/C,"endpoint: median survival time, dose: 4.0 mg/kg/injection, schedule: Q01DX009 (ip), vehicle: water",183 % of control and 192 % of control and 292 % of control
same,T/C,"endpoint: median survival time, dose: 4.5 mg/kg/injection, schedule: Q01DX001 (ip), vehicle: saline",207 % of control
same,T/C,"endpoint: median survival time, dose: 4.5 mg/kg/injection, schedule: Q01DX001 (ip), vehicle: water",164 % of control
same,T/C,"endpoint: median survival time, dose: 4.5 mg/kg/injection, schedule: Q01DX001 (iv), vehicle: saline",123 % of control
same,T/C,"endpoint: median survival time, dose: 4.5 mg/kg/injection, schedule: Q01DX001 (iv), vehicle: water",108 % of control and 112 % of control
same,T/C,"endpoint: median survival time, dose: 4.5 mg/kg/injection, schedule: Q03HX008 (ip), vehicle: saline",731 % of control
same,T/C,"endpoint: median survival time, dose: 6.0 mg/kg/injection, schedule: Q03HX024 (ip), vehicle: saline",731 % of control
same,T/C,"endpoint: median survival time, dose: 6.0 mg/kg/injection, schedule: Q04DX003 (ip), vehicle: saline",243 % of control
same,T/C,"endpoint: median survival time, dose: 7.2 mg/kg/injection, schedule: Q01DX005 (ip), vehicle: saline",731 % of control
same,T/C,"endpoint: median survival time, dose: 7.2 mg/kg/injection, schedule: Q01DX005 (iv), vehicle: saline",187 % of control
same,T/C,"endpoint: median survival time, dose: 8.0 mg/kg/injection, schedule: Q01DX009 (ip), vehicle: saline",329 % of control
same,T/C,"endpoint: median survival time, dose: 8.0 mg/kg/injection, schedule: Q01DX009 (ip), vehicle: water",213 % of control and 268 % of control and 333 % of control
same,T/C,"endpoint: median survival time, dose: 8.0 mg/kg/injection, schedule: Q01DX009 (oral), vehicle: saline",104 % of control
same,T/C,"endpoint: median survival time, dose: 9.0 mg/kg/injection, schedule: Q01DX001 (ip), vehicle: saline",231 % of control
same,T/C,"endpoint: median survival time, dose: 9.0 mg/kg/injection, schedule: Q01DX001 (ip), vehicle: water",158 % of control and 183 % of control
same,T/C,"endpoint: median survival time, dose: 9.0 mg/kg/injection, schedule: Q03HX008 (ip), vehicle: saline",731 % of control
same,T/C,"endpoint: median survival time, dose: 12.0 mg/kg/injection, schedule: Q03HX024 (ip), vehicle: saline",107 % of control
same,T/C,"endpoint: median survival time, dose: 12.0 mg/kg/injection, schedule: Q04DX003 (ip), vehicle: saline",731 % of control
same,T/C,"endpoint: median survival time, dose: 14.4 mg/kg/injection, schedule: Q01DX005 (ip), vehicle: saline",731 % of control
same,T/C,"endpoint: median survival time, dose: 16.0 mg/kg/injection, schedule: Q01DX009 (ip), vehicle: saline",280 % of control
same,T/C,"endpoint: median survival time, dose: 16.0 mg/kg/injection, schedule: Q01DX009 (ip), vehicle: water",196 % of control and 337 % of control and 365 % of control
same,T/C,"endpoint: median survival time, dose: 16.0 mg/kg/injection, schedule: Q01DX009 (oral), vehicle: saline",101 % of control
same,T/C,"endpoint: median survival time, dose: 18.0 mg/kg/injection, schedule: Q01DX001 (ip), vehicle: saline",268 % of control
same,T/C,"endpoint: median survival time, dose: 18.0 mg/kg/injection, schedule: Q01DX001 (ip), vehicle: water",216 % of control and 666 % of control
same,T/C,"endpoint: median survival time, dose: 18.0 mg/kg/injection, schedule: Q01DX001 (iv), vehicle: saline",162 % of control
same,T/C,"endpoint: median survival time, dose: 18.0 mg/kg/injection, schedule: Q03HX008 (ip), vehicle: saline",365 % of control
same,T/C,"endpoint: median survival time, dose: 24.0 mg/kg/injection, schedule: Q04DX003 (ip), vehicle: saline",731 % of control
same,T/C,"endpoint: median survival time, dose: 28.8 mg/kg/injection, schedule: Q01DX005 (ip), vehicle: saline",731 % of control
same,T/C,"endpoint: median survival time, dose: 28.8 mg/kg/injection, schedule: Q01DX005 (iv), vehicle: saline",104 % of control
same,T/C,"endpoint: median survival time, dose: 32.0 mg/kg/injection, schedule: Q01DX009 (ip), vehicle: saline",113 % of control
same,T/C,"endpoint: median survival time, dose: 32.0 mg/kg/injection, schedule: Q01DX009 (ip), vehicle: water",114 % of control and 119 % of control and 88 % of control
same,T/C,"endpoint: median survival time, dose: 32.0 mg/kg/injection, schedule: Q01DX009 (oral), vehicle: saline",107 % of control
same,T/C,"endpoint: median survival time, dose: 36.0 mg/kg/injection, schedule: Q01DX001 (ip), vehicle: saline",731 % of control
same,T/C,"endpoint: median survival time, dose: 36.0 mg/kg/injection, schedule: Q01DX001 (ip), vehicle: water",208 % of control and 466 % of control
same,T/C,"endpoint: median survival time, dose: 36.0 mg/kg/injection, schedule: Q01DX001 (iv), vehicle: saline",192 % of control
same,T/C,"endpoint: median survival time, dose: 36.0 mg/kg/injection, schedule: Q01DX001 (iv), vehicle: water",152 % of control
same,T/C,"endpoint: median survival time, dose: 48.0 mg/kg/injection, schedule: Q04DX003 (ip), vehicle: saline",731 % of control
same,T/C,"endpoint: median survival time, dose: 64.0 mg/kg/injection, schedule: Q01DX009 (ip), vehicle: saline",90 % of control
same,T/C,"endpoint: median survival time, dose: 64.0 mg/kg/injection, schedule: Q01DX009 (oral), vehicle: saline",101 % of control
same,T/C,"endpoint: median survival time, dose: 72.0 mg/kg/injection, schedule: Q01DX001 (ip), vehicle: saline",731 % of control
same,T/C,"endpoint: median survival time, dose: 72.0 mg/kg/injection, schedule: Q01DX001 (ip), vehicle: water",666 % of control
same,T/C,"endpoint: median survival time, dose: 96.0 mg/kg/injection, schedule: Q04DX003 (ip), vehicle: saline",219 % of control
same,T/C,"endpoint: median survival time, dose: 128.0 mg/kg/injection, schedule: Q01DX009 (oral), vehicle: saline",102 % of control
same,T/C,"endpoint: median survival time, dose: 144.0 mg/kg/injection, schedule: Q01DX001 (ip), vehicle: saline",731 % of control
same,T/C,"endpoint: median survival time, dose: 144.0 mg/kg/injection, schedule: Q01DX001 (ip), vehicle: water",666 % of control
O=C(O)C(O)C(O)C(O)CO (centres undefined),T/C,[1],95 % of control
same,T/C,[2],105 % of control
same,T/C,[3],97 % of control
Fc1cc2cc3ccccc3cc2c2ccccc12,T/C,"endpoint: mean survival time, dose: 100.0 mg/kg/injection, schedule: Q04DX002 (ip), vehicle: saline with Tween-80",101 % of control
same,T/C,"endpoint: mean survival time, dose: 200.0 mg/kg/injection, schedule: Q04DX002 (ip), vehicle: saline with Tween-80",104 % of control
same,T/C,"endpoint: mean survival time, dose: 400.0 mg/kg/injection, schedule: Q04DX002 (ip), vehicle: saline with Tween-80",104 % of control
CCCSCCSCCC,T/C,"endpoint: mean survival time, dose: 25.0 mg/kg/injection, schedule: Q01DX009 (ip), vehicle: saline with Tween-80",103 % of control
same,T/C,"endpoint: mean survival time, dose: 50.0 mg/kg/injection, schedule: Q01DX009 (ip), vehicle: saline with Tween-80",103 % of control
same,T/C,"endpoint: mean survival time, dose: 100.0 mg/kg/injection, schedule: Q01DX009 (ip), vehicle: saline with Tween-80",117 % of control
CNC(=O)NC1CCC(C)CC1 (centres undefined),T/C,[1],98 % of control
same,T/C,[2],96 % of control
same,T/C,[3],96 % of control
CC(=O)Oc1cccc2c1C(=O)C1(O)C(C=O)=CC3OC(C)(C)OC2(C)C31 (centres undefined),T/C,"endpoint: mean survival time, dose: 75.0 mg/kg/injection, schedule: Q01DX001 (ip), vehicle: other",102 % of control
same,T/C,"endpoint: mean survival time, dose: 150.0 mg/kg/injection, schedule: Q01DX001 (ip), vehicle: other",108 % of control
same,T/C,"endpoint: mean survival time, dose: 300.0 mg/kg/injection, schedule: Q01DX001 (ip), vehicle: other",103 % of control
